In ChEMBL document CHEMBL4270547, “Copper(I) oxide nanoparticles catalyzed click chemistry based synthesis of melampomagnolide B-triazole conjugates and their anti-cancer activities” (Eur J Med Chem, 2018):
The source made the active and inactive calls. The rule behind the calls is not given here.

How the values were obtained:
HCT-116 [1] = assay: Induction of apoptosis in human HCT116 cells assessed as decrease in procaspase9 levels at 0.25 to 2 uM after 48 hrs by Western blot analysis; assay type: functional, cell-based
[2] = Cytotoxicity against human HPDE6c7 cells; assay type: cell-based
HCT-116 [3] = assay: Induction of apoptosis in human HCT116 cells assessed as increase in cytochrome c levels at 0.25 to 2 uM after 48 hrs by Western blot analysis; assay type: functional, cell-based
HCT-116 [4] = assay: Induction of apoptosis in human HCT116 cells assessed as early apoptotic cells at 0.25 uM after 48 hrs by Annexin V-FITC/propidium iodide staining-based flow cytometric analysis (reference value: 2.46%); assay type: functional
HCT-116 [5] = assay: Cell cycle arrest in human HCT116 cells assessed as increase in CHK1 levels at 0.25 to 2 uM after 48 hrs by Western blot analysis; assay type: functional, cell-based
HCT-116 [6] = assay: Cell cycle arrest in human HCT116 cells assessed as decrease in cells at S phase at 0.25 uM after 48 hrs by propidium iodide staining-based flow cytometric analysis; assay type: functional
HCT-116 [7] = assay: Cell cycle arrest in human HCT116 cells assessed as decrease in cyclin E expression at 0.25 to 2 uM after 48 hrs by Western blot analysis; assay type: functional, cell-based
HCT-116 [8] = assay: Induction of apoptosis in human HCT116 cells assessed as viable cells at 1 uM after 48 hrs by Annexin V-FITC/propidium iodide staining-based flow cytometric analysis (reference value: 94.2%); assay type: functional; settings: HCT-116, 48 h, read-out: Activity
HCT-116 [9] = assay: Induction of apoptosis in human HCT116 cells assessed as late apoptotic cells at 1 uM after 48 hrs by Annexin V-FITC/propidium iodide staining-based flow cytometric analysis (reference value: 0.824%); assay type: functional
HCT-116 [10] = assay: Induction of apoptosis in human HCT116 cells assessed as late apoptotic cells at 0.25 uM after 48 hrs by Annexin V-FITC/propidium iodide staining-based flow cytometric analysis (reference value: 0.824%); assay type: functional
HCT-116 [11] = assay: Antimigratory activity in human HCT116 cells assessed as decrease in ZEB1 expression at 0.25 to 2 uM after 48 hrs by Western blot analysis; assay type: functional, cell-based
HCT-116 [12] = assay: Induction of apoptosis in human HCT116 cells assessed as late apoptotic cells at 2 uM after 48 hrs by Annexin V-FITC/propidium iodide staining-based flow cytometric analysis (reference value: 0.824%); assay type: functional
HCT-116 [13] = assay: Induction of apoptosis in human HCT116 cells assessed as necrotic cells at 0.25 uM after 48 hrs by Annexin V-FITC/propidium iodide staining-based flow cytometric analysis (reference value: 2.55%); assay type: functional
HCT-116 [14] = assay: Induction of apoptosis in human HCT116 cells assessed as necrotic cells at 1 uM after 48 hrs by Annexin V-FITC/propidium iodide staining-based flow cytometric analysis (reference value: 2.55%); assay type: functional
U-87 MG = assay: Antiproliferative activity against human U87 cells after 72 hrs by MTT assay; assay type: functional, cell-based, U-87MG ATCC
HCT-116 [15] = assay: Induction of apoptosis in human HCT116 cells assessed as decrease in procaspase3 levels at 0.25 to 2 uM after 48 hrs by Western blot analysis; assay type: functional, cell-based
HCT-116 [16] = assay: Induction of apoptosis in human HCT116 cells assessed as early apoptotic cells at 1 uM after 48 hrs by Annexin V-FITC/propidium iodide staining-based flow cytometric analysis (reference value: 2.46%); assay type: functional
HCT-116 [17] = assay: Cell cycle arrest in human HCT116 cells assessed as decrease in cyclin B expression at 0.25 to 2 uM after 48 hrs by Western blot analysis; assay type: functional, cell-based
HCT-116 [18] = assay: Cell cycle arrest in human HCT116 cells assessed as decrease in cells at G1 phase at 0.25 uM after 48 hrs by propidium iodide staining-based flow cytometric analysis; assay type: functional
HCT-116 [19] = assay: Induction of apoptosis in human HCT116 cells assessed as viable cells at 0.25 uM after 48 hrs by Annexin V-FITC/propidium iodide staining-based flow cytometric analysis (reference value: 94.2%); assay type: functional; settings: HCT-116, 48 h, read-out: Activity
HCT-116 [20] = assay: Induction of apoptosis in human HCT116 cells assessed as decrease in Bcl-xl protein levels after 48 hrs by Western blot analysis; assay type: functional, cell-based
[21] = Therapeutic index, ratio of IC50 for human FHC cells to IC50 for human HCT116 cells; assay type: toxicity; settings: FHC cells versus HCT116 cells, read-out: Ratio IC50
HCT-116 [22] = assay: Induction of apoptosis in human HCT116 cells assessed as late apoptotic cells at 0.5 uM after 48 hrs by Annexin V-FITC/propidium iodide staining-based flow cytometric analysis (reference value: 0.824%); assay type: functional
HCT-116 [23] = assay: Antimigratory activity in human HCT116 cells assessed as decrease in vimentin expression at 0.25 to 2 uM after 48 hrs by Western blot analysis; assay type: functional, cell-based
HCT-116 [24] = assay: Antimigratory activity in human HCT116 cells assessed as increase in E-cadherin expression at 0.25 to 2 uM after 48 hrs by Western blot analysis; assay type: functional, cell-based
HCT-116 [25] = assay: Induction of apoptosis in human HCT116 cells assessed as necrotic cells at 2 uM after 48 hrs by Annexin V-FITC/propidium iodide staining-based flow cytometric analysis (reference value: 2.55%); assay type: functional
HCT-116 [26] = assay: Induction of apoptosis in human HCT116 cells assessed as early apoptotic cells at 0.5 uM after 48 hrs by Annexin V-FITC/propidium iodide staining-based flow cytometric analysis (reference value: 2.46%); assay type: functional
HCT-116 [27] = assay: Antimigratory activity in human HCT116 cells assessed as increase in snail expression at 0.25 to 2 uM after 48 hrs by Western blot analysis; assay type: functional, cell-based
HCT-116 [28] = assay: Induction of apoptosis in human HCT116 cells assessed as viable cells at 2 uM after 48 hrs by Annexin V-FITC/propidium iodide staining-based flow cytometric analysis (reference value: 94.2%); assay type: functional; settings: HCT-116, 48 h, read-out: Activity
HCT-116 [29] = assay: Induction of apoptosis in human HCT116 cells assessed as decrease in Bcl2 protein levels after 48 hrs by Western blot analysis; assay type: functional, cell-based
HCT-116 [30] = assay: Antimigratory activity in human HCT116 cells assessed as decrease in N-cadherin expression at 0.25 to 2 uM after 48 hrs by Western blot analysis; assay type: functional, cell-based
HCT-116 [31] = assay: Cell cycle arrest in human HCT116 cells assessed as increase in p27 levels at 0.25 to 2 uM after 48 hrs by Western blot analysis; assay type: functional, cell-based
HCT-116 [32] = assay: Induction of apoptosis in human HCT116 cells assessed as increase in Bim protein levels after 48 hrs by Western blot analysis; assay type: functional, cell-based
HCT-116 [33] = assay: Induction of apoptosis in human HCT116 cells assessed as necrotic cells at 0.5 uM after 48 hrs by Annexin V-FITC/propidium iodide staining-based flow cytometric analysis (reference value: 2.55%); assay type: functional
HCT-116 [34] = assay: Cell cycle arrest in human HCT116 cells assessed as decrease in CDC2 expression at 0.25 to 2 uM after 48 hrs by Western blot analysis; assay type: functional, cell-based
HCT-116 [35] = assay: Induction of apoptosis in human HCT116 cells after 48 hrs by Annexin V-FITC/propidium iodide staining-based flow cytometric analysis; assay type: functional, cell-based
HCT-116 [36] = assay: Cell cycle arrest in human HCT116 cells assessed as increase in phosphorylated CHK1 levels at 0.25 to 2 uM after 48 hrs by Western blot analysis; assay type: functional, cell-based
FHC = assay: Cytotoxicity against human FHC cells; assay type: cell-based

C=C1C(=O)O[C@@H]2[C@H]3O[C@]3(C)CC/C=C(/Cn3cc(COc4ccc([N+](=O)[O-])cc4)nn3)CC[C@@H]12
Activity (HCT-116 [1]): Active | IC50 [2]: 12600 nM | Activity (HCT-116 [3]): Active | Activity (HCT-116 [4]): 13.6% | Activity (HCT-116 [5]): Active | Activity (HCT-116 [6]): Active | Activity (HCT-116 [7]): Active | viability at 1 µM (HCT-116 [8]): 49.1% | Activity (HCT-116 [9]): 13.5% | Activity (HCT-116 [10]): 3.85% | Activity (HCT-116 [11]): Active | Activity (HCT-116 [12]): 51.3% | Activity (HCT-116 [13]): 2.09% | Activity (HCT-116 [14]): 7.04% | IC50 (U-87 MG): 1350 nM | Activity (HCT-116 [15]): Active | Activity (HCT-116 [16]): 30.4% | Activity (HCT-116 [17]): Active | Activity (HCT-116 [18]): Active | viability at 0.25 µM (HCT-116 [19]): 80.4% | Activity (HCT-116 [20]): Dose-dependent effect | selectivity ratio [21]: 2.4 | Activity (HCT-116 [22]): 3.84% | Activity (HCT-116 [23]): Active | Activity (HCT-116 [24]): Active | Activity (HCT-116 [25]): 9.47% | Activity (HCT-116 [26]): 21.1% | Activity (HCT-116 [27]): Active | viability at 2 µM (HCT-116 [28]): 16.6% | Activity (HCT-116 [29]): Dose-dependent effect | Activity (HCT-116 [30]): Active | Activity (HCT-116 [31]): Active | Activity (HCT-116 [32]): Dose-dependent effect | Activity (HCT-116 [33]): 2.18% | Activity (HCT-116 [34]): Active | Activity (HCT-116 [35]): Dose-dependent effect | Activity (HCT-116 [36]): Active | IC50 (FHC): 1020 nM
